Usually EC50 stands for the concentration at which the effect is half-maximal. What is called IC50 is the concentration at which inhibition is half-maximal. Read a low IC50 as inhibition by little substance.

Activity calls are given as the source filed them.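 Rule for the calls: active = compounds giving half or more protection of infected cells from virus-caused growth loss, again on retest; inactive = the rest.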 Some results are limits rather than exact numbers.

Experimental findings from PubChem BioAssay AID179 (DTP/NCI, 2004) are described below.

The assay relates to CEM cells HIV-1 protection, formazan growth assay. As to the kind of experiment: NCI AIDS Antiviral Assay. The conditions noted are these: for IC50: measured here: growth of uninfected CEM cells. In a few lines: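 Five concentrations of each compound were applied to infected and uninfected human CEM cells. Protection from HIV-1 was judged from growth measured with a soluble formazan assay.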

Regarding `Cc1[nH]nc2c1NC(=O)OC2`, the EC50 was above 1170 µM and the IC50 is above 1170 µM.

Turning to `Cc1nc(-c2cccnc2)sc1C(=O)CC(=O)C(=O)Nc1cccc(NC(=O)C(=O)CC(=O)c2sc(-c3cccnc3)nc2C)n1`, the EC50 is above 275 µM and the IC50 was determined as 158 µM.

For the compound `CCN1CC2(OC(=O)c3ccccc3NC(C)=O)CCC(OC)C34C1C(CC23)C1(O)CC(OC)C2CC4C1(O)C2OC` (centres undefined), the result was inactive.

Consider `CC(C(=O)OCc1ccccc1)N(Cc1ccccc1)Cc1ccccc1` (centres undefined), for which the EC50 was above 200 µM and the IC50 is above 200 µM.

`Cc1cccc(C2ON=C(c3ccccc3)N2C23CC4CC(CC(C4)C2)C3)c1` (centres undefined): the EC50 was above 200 µM and the IC50 is 49 µM.

Take `Cc1cc(C)nc(NS(=O)(=O)c2ccc(N)cc2)n1`: the EC50 is above 200 µM and the IC50 is above 200 µM.

As to `CCC(=O)C1(N2CCOCC2)CCN(CCCC(=O)c2ccc(F)cc2)CC1`, the EC50 was above 200 µM and the concentration for half-maximal inhibition (IC50) was above 200 µM.

Regarding `Cc1cccc(C)c1N1C(=O)C(=O)C(c2nc3ccccc3s2)C(=Nc2cccc3c(=O)[nH][nH]c(=O)c23)C1=O` (centres undefined), the result was inactive.

In the case of `COC(=O)C1=CC(O)CCC1c1ccc(OC)cc1` (centres undefined), the EC50 was above 363 µM and the IC50 was above 363 µM.

With `Cc1c2ccnc(C(N)=O)c2c(C)c2c1[nH]c1ccccc12`, the result was inactive.

On to `COc1cc2c(cc1OC)C(C(CBr)CBr)N(C1CCCC1)CC2` (centres undefined), for which the EC50 is above 389 µM and the half-maximal inhibitory concentration (IC50) is above 389 µM.

For `COc1cccc(NC(=O)CC(=O)N2N=C(n3ccc4ccccc43)CC2c2ccccc2)c1` (centres undefined), the result was inactive.

In the case of `COc1cc(NC(C)=O)c(OC)cc1Cl`, the outcome was inactive.

In the case of `O=Nc1c(-c2ccccc2)nc2ncccn12`, the EC50 was above 200 µM and the IC50 was 2.14 µM.

Turning to `CCOC(=O)C1=C(NC(C)(C)C)OCC1=O`, the outcome was inactive.

As for `NCC1(N2CCOCC2)C2CCCC21CNc1ccccc1` (centres undefined), the EC50 was above 24 µM and the IC50 is above 24 µM.

As for `Cc1ccc(C(=O)/C=C/c2ccccc2)s1`, the EC50 is above 200 µM and the IC50 is 10.7 µM.

In the case of `Cc1nc2ccccc2c(=O)n1-c1ccccc1F`, the EC50 was above 708 µM and the IC50 worked out at 437 µM.

`COC(=O)CC(NC(=O)OCc1ccccc1)C(C(=O)OCc1ccccc1)C(C)(OC)OC` (centres undefined): the EC50 is above 50.1 µM and the half-inhibitory concentration (IC50) stood at 20.4 µM.

On to `Cc1cccc(C)c1NC(=O)/C(CC(=O)CC(c1ccccc1)c1c(O)c2ccccc2oc1=O)=N/O` (centres undefined), for which the EC50 was above 263 µM and the IC50 came to 204 µM.

Turning to `CC(=O)NC1Cc2ccccc2C1=O` (centres undefined), the EC50 is above 200 µM and the IC50 is above 200 µM.

In the case of `C=CCCCC(C#N)(c1ccccc1)N(C)C` (centres undefined), the result was inactive.

Take `OC1(c2ccccc2)CC2CCC(C1)N2CCc1ccccc1` (centres undefined): the EC50 was above 200 µM and the IC50 amounted to 102 µM.

For the compound `CC#CC(O)(C(=O)OC1CCC2CCC1N2C)C1CCCC1` (centres undefined), the EC50 is above 200 µM and the 50% inhibitory concentration (IC50) is above 200 µM.

Turning to `Nc1cn(Cc2ccccc2)c2nc(/C=C3/C=CC=CC3=O)c(O)n12`, the EC50 was above 200 µM and the half-maximal inhibitory concentration (IC50) was above 200 µM.

`COc1ccc(/C=C2\CN(C)Cc3c2nc(N)nc3-c2ccc(OC)cc2)cc1`: the EC50 was above 18.6 µM and the IC50 was above 18.6 µM.

As to `CCn1c2ccccc2c2nnc(NCCCO)nc21`, the EC50 is above 200 µM and the IC50 was determined as 141 µM.

Regarding `CC(=O)NC(ON1C(=O)COc2ccccc21)C(Cl)(Cl)Cl` (centres undefined), the EC50 is above 100 µM and the IC50 is above 100 µM.

Turning to `CSC1=Nc2ccccc2N=C(c2ccccc2)C1`, the EC50 was above 26.9 µM and the concentration for half-maximal inhibition (IC50) is above 26.9 µM.

Turning to `NCCCCNOCCCN`, the EC50 was above 200 µM and the IC50 is above 200 µM.

Turning to `CCCCC(CC)CN(Cc1cc(CN(CC(CC)CCCC)CC(CC)CCCC)c(O)c(CN(CC(CC)CCCC)CC(CC)CCCC)c1)CC(CC)CCCC` (centres undefined), the EC50 is above 200 µM and the IC50 is 34.7 µM.

As for `COC(=O)Cc1ccc(COC(=O)c2cc(C(=CCC[C@H]3CC[C@@]4(C)[C@@H](CC[C@@H]5[C@@H]4CC[C@]4(C)[C@@H]([C@H](C)CCCC(C)C)CC[C@@H]54)C3)c3cc(Cl)c(OCc4ccc(CC(=O)OC)cc4)c(C(=O)OCc4ccc(CC(=O)OC)cc4)c3)cc(Cl)c2OCc2ccc(CC(=O)OC)cc2)cc1`, the EC50 was above 200 µM and the IC50 is above 200 µM.

On to `O=C(NCCCCCCCCCCCCNC(=O)c1cnc2ccccc2n1)c1cnc2ccccc2n1`, for which the EC50 was above 4.9 µM and the 50% inhibitory concentration (IC50) is above 4.9 µM.

As for `COC(=O)CCc1ccc2c(c1)CC1(C2)Cc2ccc(CCC(=O)OC)cc2C1`, the EC50 is above 200 µM and the concentration for half-maximal inhibition (IC50) was determined as 57.5 µM.

On to `COC(=O)c1cc2c(o1)Sc1ccccc1NC2=O`, for which the EC50 is above 200 µM and the IC50 is above 200 µM.

Take `Cc1ccc(C=Nc2ccc(SSc3ccc(N=Cc4ccc(C)cc4)cc3)cc2)cc1`: the EC50 is above 200 µM and the half-maximal inhibitory concentration (IC50) was 26.3 µM.

For `CSc1nc(Cl)c2c(n1)Sc1nc3ccccc3n1C2O` (centres undefined), the EC50 is above 200 µM and the IC50 is 6.31 µM.

Regarding `CCn1c(SCC(=O)NNC(=S)Nc2ccc(Cl)cc2)nc2ccccc2c1=O`, the EC50 was above 200 µM and the IC50 worked out at 95.5 µM.

`c1c[se]c(-c2nc3ccccc3[nH]2)c1`: the EC50 is above 69.2 µM and the 50% inhibitory concentration (IC50) is above 69.2 µM.

For the compound `O=C(NN1C(=O)C(Cl)C1c1c(O)ccc2ccccc12)c1ccccc1O` (centres undefined), the EC50 is above 67.6 µM and the concentration for half-maximal inhibition (IC50) is above 67.6 µM.

In the case of `COc1cccc2c1C1(O)C2CCCC12OCCCO2` (centres undefined), the EC50 was above 200 µM and the 50% inhibitory concentration (IC50) is above 200 µM.

On to `C1OCN2CSCC12` (centres undefined), for which the EC50 was above 1910 µM and the IC50 was 110 µM.

Regarding `COC(=O)C(CCSC)NC(=O)Cc1ccc(C(=O)c2ccccc2)cc1` (centres undefined), the EC50 is above 200 µM and the half-inhibitory concentration (IC50) stood at 34.7 µM.

On to `O=C(n1c(=O)n(-c2ccc(Cl)cc2)c(=O)n1C(=O)C(Cl)(Cl)Cl)C(Cl)(Cl)Cl`, for which the EC50 is above 200 µM and the IC50 is above 200 µM.

With `Cc1nc(N)c(N2CCN(S(=O)(=O)N(Cc3ccccc3)Cc3ccccc3)CC2)c(=O)[nH]1`, the EC50 was above 195 µM and the concentration for half-maximal inhibition (IC50) worked out at 120 µM.

On to `CCc1ccc2nccc(NCCCN(C)C)c2c1[N+](=O)[O-]`, for which the EC50 was above 200 µM and the IC50 is 87.1 µM.

Consider `Oc1ccccc1/C=N/N1C(=S)N(c2ccccc2)C(=Nc2ccccc2)C1=Nc1ccccc1`, for which the EC50 is above 20 µM and the half-inhibitory concentration (IC50) stood at 1.29 µM.

Turning to `O=c1[nH]nc(Nc2ccccc2)c2nnn(C3CCCCC3)c12`, the EC50 is above 174 µM and the IC50 was above 174 µM.

On to `Cc1ccccc1N(CC(=O)O)S(=O)(=O)c1ccccc1`, for which the result was inactive.

In the case of `CCN(CC)CCCCCCNc1cc(C)cc2cccnc12`, the EC50 is above 200 µM and the IC50 came out at 20.9 µM.

On to `COC(=O)C1CC23C=CCN4CC(C2C)C2(c5ccccc5NC12)C43` (centres undefined), for which the EC50 was above 200 µM and the half-inhibitory concentration (IC50) worked out at 112 µM.

With `CC/C(=C(\C#N)c1ccc(OCCN(CC)CC)cc1)c1ccc(OCCN(CC)CC)cc1`, the EC50 was above 200 µM and the IC50 came out at 1.86 µM.

Take `CC(C)(C)[Si](C)(C)OC1C(CC#N)C(CO)OC1n1ccc(=O)[nH]c1=O` (centres undefined): the EC50 was above 200 µM and the IC50 is above 200 µM.

As for `O=S(=O)(O)c1ccc(NN(c2c(O)ccc3ccccc23)S(=O)(=O)O)cc1`, the EC50 was above 550 µM and the IC50 was found to be 229 µM.

As for `C[C@@H]1CC/C=C(/[Si](C)(C)C)C[C@H](C)O1`, the EC50 is above 1170 µM and the half-inhibitory concentration (IC50) is above 1170 µM.

`COC(=O)c1ccccc1C1CN=NC12Cc1ccc3c(c1C2=O)CCC3` (centres undefined): the EC50 is above 200 µM.

As for `c1csc(-c2csc(-c3ccsc3)c2)c1`, the EC50 is above 200 µM and the IC50 is above 200 µM.

In the case of `Cc1ccc2c(c1)nc1n2C(N)=Nc2ccccc2S1`, the EC50 is above 200 µM and the IC50 worked out at 11.5 µM.

As for `Cn1c2ccccc2c2c(-c3ccccc3)cc3c(c21)C(=O)C=CC3=O`, the EC50 is above 100 µM and the 50% inhibitory concentration (IC50) stood at 5.5 µM.
